Source: patent US8357350B2, “Annulus fibrosus detection in intervertebral discs using molecular imaging agents” (General Electric Company, priority 2009, dated 2013)

Legend:
[1] = system: dorsal root ganglia; assay: FM fluorophore uptake, intraoperative fluorescence imaging; assay type: in vivo, mice and rats; settings: 5 mg/kg mice, 0.5 mg/kg rats IP, 16 hours before imaging; signal normalized to muscle, vs vehicle control; further: key: +: Positive contrast was concluded if the nerve-to-muscle contrast ratio of FM fluorophore-injected animals was elevated relative to control animals
Procedure: (§1) Imaging was carried out at near infrared wavelenghts using a 400- to 700-nm “white” light (0.5 mW/cm^2) and a 725- to 775-nm NIR fluorescence excitation light (5 mW/cm^2). Fluorescence images were collected using exposure times ranging from 500 to 2000 msec. All images collected for comparison between vehicle-injected control animals and FM fluorophore-injected animals had the same exposure time and normalization. Color video images were collected on a separate optical channel using custom designed software. The excitation and emission LEDs and filter used for the FM fluorophores and Pam800 in the intraoperative imaging system are described as follows. For fluorescence excitation of FM 1-43, FM 2-10, FM 1-43FX and Formula IA, sixty 5-mm 470 nm LEDs ([…], Inc., Kyoto, Japan) fitted with 470±20 nm band pass (BP) excitation filters (Chroma Technology, Rockingham, Vt.) in custom holders were used, which produced a fluence rate on the imaging surface of 0.56 mW/cm^2. For fluorescence excitation of Formula II, FM 4-64, FM 4-64FX and FM 5-95, sixty 5-mm 535 nm LEDs fitted with 525±25 nm BP excitation filters were used, which produced a fluence rate on the imaging surface of 0.34 mW/cm^2. A 610±38 nm BP filter was used to detect fluorescence emission of FM 1-43, FM 2-10, Formula II, FM 1-43FX and Formula IA. To detect fluorescence emission of FM 4-64, FM 4-64FX and FM 5-95 a 720 nm long pass (LP) filter was used. For fluorescence excitation of Pam800, 348 5-mm 760 nm LEDs fitted with 764±17 nm BP excitation filters were used, which produced a fluence rate on the imaging surface of 8.73 mW/cm^2 and fluorescence emission was detected using a 824±24 nm BP emission filter. To assess the structure-activity relationship of the FM fluorophores, each molecule was administered at 5 mg/kg to mice and 0.5 mg/kg to rats (n=4 per group) in 10% DMSO and 90% PBS IP 16 hours before imaging with the intraoperative system. The fluorescence signal from the spinal cord, intervertebral discs, dorsal root ganglia, trigeminal ganglia, optic nerve, brain and femoral nerve were normalized to muscle signal in the same image. This normalization ratio was then compared between FM fluorophore-injected animals and vehicle-injected control animals.

[2] = system: trigeminal ganglia; assay: as above; assay type: in vivo, mice and rats; settings: 5 mg/kg mice, 0.5 mg/kg rats IP, 16 hours before imaging; signal normalized to muscle, vs vehicle control; further: key: +: Positive contrast was concluded if the nerve-to-muscle contrast ratio of FM fluorophore-injected animals was elevated relative to control animals
Procedure: as §1

[3] = system: intervertebral discs; assay: as above; assay type: in vivo, mice and rats; on Uptake: Intervertebral Disc: key: +: Positive contrast was concluded if the nerve-to-muscle contrast ratio of FM fluorophore-injected animals was elevated relative to control animals
Procedure: as §1

[4] = Absorbance and fluorescence spectra of FM fluorophores in solvents; assay type: physicochemical; settings: for Em nm (MeOH): emission maximum in MeOH; for Em nm (PBS): emission maximum in PBS; for Ex nm (MeOH): excitation maximum in MeOH; for Ex nm (PBS): excitation maximum in PBS
Procedure: (§2) Absorbance and fluorescence spectra of the FM fluorophores were measured in PBS and absolute methanol (MeOH) using fiber-optic HR2000 (200-1100 nm) and USB2000FL (350-1000 nm) spectrometers (Ocean Optics, Dunedin, Fla.), respectively. Fluorescence excitation was provided by a 2 mW, 532 nm laser diode. The fluorescence and absorbance spectra of FORMULA II and FORMULA IA were collected in dimethyl sulfoxide (DMSO) and fetal bovine serum (FBS), as well as MeOH and PBS. The quantum yield of FORMULA II and FORMULA IA in DMSO, MeOH, FBS and PBS was measured by comparing the integrated fluorescence emission of the fluorophores in each solvent to the emission of Alexa Fluor 555 (Invitrogen) in PBS (quantum yield=10%) as a reference standard under conditions of matched absorbance at the excitation wavelength. The LogD of each FM fluorophore at pH 7.5 was calculated using Marvin 5.0.3 software (ChemAxon, Budapest, Hungary).

[5] = system: dorsal root ganglia; assay: Histology and fluorescence microscopy of dorsal root ganglia; assay type: in vivo; settings: rat, 0.5 mg/kg, 16 h post-IP
Procedure: Tissues from mice, rats and pig were preserved for microscopic assessment and localization of fluorescence signal. Tissues were extracted from the animal and placed in 2% paraformaldehyde in PBS for 2 to 4 hours before mounting in Tissue-Tek OCT compound (Fisher Scientific, Pittsburgh, Pa. ) and flash-freezing in liquid nitrogen. Each sample was cryo-sectioned (12 μm per slice); one slide was stained with hematoxylin and eosin (H&E) and a consecutive section was used for fluorescence microscopy. For fluorescence microscopy, serial sections were imaged on a Nikon TE 300 microscope system equipped with a mercury excitation source (Chiu Technical Corporation, Kings Park, N.Y.), Orca-ER 12-bit camera (Hamamatsu, Bridgewater, N.J.), and IPLab software (BD Biosciences, Rockville, Md.), using the following excitation and emission filters combinations. To obtain fluorescence images of FM 4-64, the mercury light source was passed through a 540±15 nm BP excitation filter, 700 nm dichroic beam splitter and 720 nm LP emission filter. To obtain fluorescence images of FM 1-43FX and Formula IA, the mercury light source was passed through a 460±25 nm BP excitation filter, 505 nm dichroic beam splitter and a 610±38 nm BP emission filter. Exposure times were adjusted between 5 and 2000 ms for fluorescence images.

[6] = Fluorescence quantum yield versus Alexa Fluor 555 reference; assay type: physicochemical; settings: highest in FBS among DMSO, MeOH, PBS
Procedure: as §2

SMILES	Uptake: Dorsal Root Ganglia [1]	Uptake: Trigeminal Ganglia [2]	Uptake: Intervertebral Disc ([3]; 5 mg/kg mice, 0.5 mg/kg rats IP, 16 hours before imaging, signal normalized to muscle, vs vehicle control)	contrast in the intervertebral discs ([3]; IP administration to mice and rats)	Em nm (MeOH) [4]	Em nm (PBS) [4]	Ex nm (MeOH) [4]	Ex nm (PBS) [4]	microscopic localisation of fluorescence in dorsal root ganglion [5]	fluorescence quantum yield, times higher in FBS [6]	blue shift of emission maximum in FBS ([4]; FBS compared to DMSO, MeOH or PBS)
CCCCN(CCCC)c1ccc(/C=C/c2cc[n+](CCC[N+](CC)(CC)CC)cc2)cc1.[Br-].[Br-] [FM 1-43]	+	+	+	positive contrast	624 nm	631 nm	509 nm	493 nm	–	–	–
CCN(CC)c1ccc(/C=C/c2cc[n+](CCC[N+](CC)(CC)CC)cc2)cc1.[Br-].[Br-] [FM 2-10]	–	+	–	–	622 nm	628 nm	507 nm	490 nm	–	–	–
CCN(CC)c1ccc(/C=C/C=C/C=C/c2cc[n+](CCC[N+](CC)(CC)CC)cc2)cc1.[Br-].[Br-] [FM 4-64]	+	+	–	–	811 nm	808 nm	546 nm	507 nm	significant fluorescence intensity was seen in the dense cellular regions	–	–
CCN(CC)c1ccc(C=CC=CC=Cc2cc[n+](CCC[N+](C)(C)C)cc2)cc1.[Br-].[Br-] [FM 5-95]	+	+	–	–	809 nm	809 nm	542 nm	490 nm	–	–	–
CCCCN(CCCC)c1ccc(/C=C/C=C/C=C/c2cc[n+](CCC[N+](CC)(CC)CC)cc2)cc1.[Br-].[Br-] [Formula II, 4-((1 E,3E,5E)-6-(4-(dibutylamino)phenyl)hexa-1,3,5-trienyl)-1-(3-(triethylammonio)propyl)pyridinium dibromide]	–	+	–	–	813 nm	808 nm	549 nm	519 nm	–	10 times	over 100 nm
